Experimental data from patent publication US10487313B2, “Efficient induction of definitive endoderm from pluripotent stem cells” (Novo Nordisk A/S, priority 2011, dated 2019).

Tests used:
Format in all cases: cell-based, human
SA121 and chIPS cells = experiment: CHIR dose dependency: cell survival after titration and AA treatment; conditions: then 2 d AA
Procedure: Brachyury expression was analysed after 24 h treatment in SA121 (FIG. 7A) and chIPS cells (FIG. 7C). SOX17 expression was analysed D3 in SA121 (FIG. 7B) and chIPS cells (FIG. 7D)).
(§1) Confluent cultures were washed once in RPMI1640 (Invitrogen) before 24 hour pre-treatment with 0,5-7μM CHIR99021 (Stemgent) in RPMI. Control cells were left untreated in RPMI and D'Amour cells were either left in RPMI or treated with AA (Peprotech)+Wnt3a (R&D Systems) without pre-treatment depending on experimental setup.
Chir was titrated at concentrations between 1-7 uM and analyzed after 24 h Chir treatment (D1) and after 2 d of following AA treatment (D3).

chIPS4 cells [1] = experiment: Further differentiation of DE towards pancreatic endoderm, PDX1 by ICC and real-time PCR; conditions: seven days after induction of PE differentiation
Procedure: When cells were further differentiated to PE, the DE protocol was applied in T75 cell culture flasks and reseeded after 4 d of DE culture at a density of 200 K in DE media. 1 d later, cells were washed once before addition of PE media (RPMI1640+12% KOSR+64 ng/ml bFGF) according to published protocol (Amen et al 2010). RNA samples were collected after 24 h pre-treatment (D1), after 1 day of AA treatment (D2) and after 1-2 d of AA+B27 treatment (D3-4). Total RNA was extracted with the Rneasy Plus Mini kit (Qiagen) and quantitative real-time PCR was performed using the StepOnePLus system (Applied Biosystems). Cells were washed in PBS+/+ and fixed in 4% formaldehyde for 30 min (10% formaline, VWR). The cells were then washed again three times in PBS and left in PBS (4° C.) until staining. Fixed cells were washed with PBS once, then permeabilized with 0.5% Triton X-100 in PBS for 6 min, washed in PBS and blocked with TNB buffer (0.1 M Tris-HCL pH 7.5, 0.15 M NaCl, 0.5% Blocking Reagent (Perkin Elmer)) for 30 min. […] Seven days after the induction of PE differentiation the cells were fixed and analyzed by ICC using a PDX1 specific antibody. […] In parallel, mRNA was collected from the cells and the PDX1 expression was analyzed by real-time PCR. […]

chIPS4 cells [2] = experiment: OCT4 and SOX17 protein ICC quantification during DE induction, DEF culture system; conditions: for OCT4 ICC % positive cells / SOX17 ICC % positive cells: CHIR 3 μM D1 then Activin A D2-3, or D'Amour protocol
Procedure: Human embryonic stem (hES) cells SA121 and chIPS4 (Cellartis) were grown on human fibronectin (Sigma) in DEF culture media (Cellartis) with 30 ng/ml bFGF (Invitrogen) and 10 ng/ml Noggin (Peprotech) in 6-96 well plates. Cells were single cell passaged with Rock inhibitor Y-27632 (Calbiochem) and seeded at a density of 40000 cells/cm2 for experiments. Experiments were initiated 4 d after passage.
as §1
After 24 hours, pretreated and control cells were washed once with RPMI before adding 100 ng/ml AA in RPMI. D'Amour cells were also treated with 100 ng/ml AA but with 0,2% FBS instead of B27. 24 h later, 2% B27 (Invitrogen) was added to the AA media for 2-3 d. Control cells were treated with B27 to prevent cell death and D'Amour cells with 2% FBS according to published protocol. Media was changed every day.
• Day 1: Cells were washed carefully in prewarmed (37° C.) RPMI before starting the differentiation. Day1 medium was premixed (CHIR 3 μM in prewarmed RPMI+PEST) and gently added to cell culture. Volumes were adjusted according to plate formats. • Day 2: Cells were washed carefully in prewarmed (37° C.) RPMI before media change. Day2 medium was premixed (100 ng/ml Activin A in prewarmed RPMI+0.1% PEST) and gently added to cell culture. • Day 3: Day3&4 mediums were premixed (100 ng/ml Activin A and 2% B27 in prewarmed RPMI+0.1% PEST) and gently added to cell culture. • Day 4: DE was harvested or reseeded for further differentiation. Cells were checked under the microscope every day.
Cells were washed in PBS+/+ and fixed in 4% formaldehyde for 30 min (10% formaline, VWR). The cells were then washed again three times in PBS and left in PBS (4° C.) until staining. Fixed cells were washed with PBS once, then permeabilized with 0.5% Triton X-100 in PBS for 6 min, washed in PBS and blocked with TNB buffer (0.1 M Tris-HCL pH 7.5, 0.15 M NaCl, 0.5% Blocking Reagent (Perkin Elmer)) for 30 min. Primary antibodies (goat-anti-SOX17 (AF1924, RnD Systems); goat-anti-Brachyury (AF2085, RnD Systems); mouse-anti-OCT4 (sc5279, SantaCruz Biotechnology); goat-anti-PDX1 (AB47383, Abcam)) were added in 0.1% TritonX-100+PBS for 1 h in RT or 4° C. O/N. After a thorough washing step in PBS, secondary antibodies were added together with DAPI in 0.1% Triton X-100+PBS for 45 min at RT, washed thoroughly in PBS and left in PBS until photodocumentation.
Undifferentiated ChIPS4 cells (d0) were either pre-treated for 24 h with CHIR (3 μM) or directly exposed to AA (100 ng/ml) and Wnta3a (25 ng/ml) according to Kroon et al 2008. The cells were then washed and AA was added for 1-4 d.
In addition, the most striking difference between the protocols could be seen in terms of morphology with a much higher degree of cell death during D'Amour treatment. To further strengthen the results, a quantification of SOX17 protein expression was thus performed. chIPS4 cells treated with either the CHIR- or D'Amour-protocol were fixed and stained using a SOX17-specific ab and the images were quantified in respect of total amounts and the percentage of SOX17-positive cells. […] In addition, the total amount of CHIR pre-treated cells was 25% higher than the number seen after D'Amour treatment.

Cc1c[nH]c(-c2cnc(NCCNc3ccc(C#N)cn3)nc2-c2ccc(Cl)cc2Cl)n1 [CHIR, CHIR99021]
cell survival D3 (SA121 and chIPS cells; CHIR 7 uM 24 h): did not survive d3
cell survival D3 (SA121 and chIPS cells; CHIR 0.5-1 uM 24 h): did not survive d3
PDX1 mRNA expression by real-time PCR (chIPS4 cells [1]): clear expression
PDX1 staining by ICC (chIPS4 cells [1]): evident
OCT4 ICC % positive cells (chIPS4 cells [2]; chIPS4, D1): 91.2%
SOX17 ICC % positive cells (chIPS4 cells [2]; chIPS4, D1): 0.9%
OCT4 ICC % positive cells (chIPS4 cells [2]; chIPS4, D2): 3.1%
SOX17 ICC % positive cells (chIPS4 cells [2]; chIPS4, D2): 68.8%
OCT4 ICC % positive cells (chIPS4 cells [2]; chIPS4, D3): 3.7%
SOX17 ICC % positive cells (chIPS4 cells [2]; chIPS4, D3): 91.5%
total amount of cells higher than after D'Amour treatment (chIPS4 cells [2]; chIPS4, d3, image quantification): 25%
